Assay results from patent US7030138B2, “Benzamidine derivatives” (Sankyo Company, Limited, priority 2001, dated 2006).
Where a name gives a salt, the structure may show the parent alone.

Legend:
[1] = target: T1, human factor-Xa (Homo sapiens, UniProt P00742); assay: Determination of anti-factor Xa activity (S-2222 coloring substrate, absorbance at 405 nm); format: biochemical; conditions: human factor-Xa 0.25 unit/ml, S-2222 0.4 mM, Tris buffer pH 8.4, room temperature, 5 minutes; read-out: Inhibitory Action against Factor Xa Activity (IC50 (nM))
T1 construct: purchased Cosmobio Co., Ltd
T1 sequence (P00742 235-488 limits assumed): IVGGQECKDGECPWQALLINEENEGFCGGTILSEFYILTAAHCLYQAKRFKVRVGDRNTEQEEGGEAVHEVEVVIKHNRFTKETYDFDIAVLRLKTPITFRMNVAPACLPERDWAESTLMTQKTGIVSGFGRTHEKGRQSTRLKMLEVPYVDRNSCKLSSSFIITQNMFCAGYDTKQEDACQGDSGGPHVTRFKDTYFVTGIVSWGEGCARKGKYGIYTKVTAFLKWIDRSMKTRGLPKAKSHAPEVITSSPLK
T1 sequence (P00742 41-179 partner limits assumed): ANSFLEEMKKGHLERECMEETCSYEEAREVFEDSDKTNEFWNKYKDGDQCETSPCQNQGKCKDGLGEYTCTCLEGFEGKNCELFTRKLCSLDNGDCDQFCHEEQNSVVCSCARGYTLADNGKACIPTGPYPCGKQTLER
Protocol: Determination of Anti-factor Xa Activity
Anti-factor Xa activity was determined according to methods described by Hara et al. [Thrombo. Haemost., 71, 314 (1994)], which were slightly modified. S-2222, a coloring substrate (0.4 mM, Daiichi Pure Chemicals Co., Ltd.) and the test compounds were mixed in Tris hydrochloride buffered solution (50 mM, pH: 8.4) containing NaCl (0.9%). To this solution, human factor-Xa (0.25 unit/ml, Cosmobio Co., Ltd.) was added and the reaction was started. In the control group, distilled water was added to the Tris-buffered solution instead of the test compound. The reaction mixture (in total: 0.1 ml) was incubated at room temperature for 5 minutes. Optical absorbance of the reaction mixture was continuously determined at 405 nm with a 96-well microplate reader (Model 550, Biorad) and increase in the absorbance for 5 minutes was calculated as an indicator of factor Xa activity. To assess anti-factor Xa activities of the test compounds, concentrations of the test compounds to inhibit the factor Xa activity by 50% (IC50) were calculated.

[2] = target: T2, bovine trypsin (Bos taurus, UniProt P00760); assay: Determination of anti-trypsin activity (S-2222 coloring substrate, absorbance at 405 nm); format: biochemical; conditions: bovine trypsin 0.25 μg-protein/ml, S-2222 0.4 mM, Tris buffer pH 8.4, room temperature, 5 minutes; read-out: Inhibitory Action against Trypsin Activity (IC50 (nM))
T2 construct: purchased Sigma
T2 sequence (P00760 24-246): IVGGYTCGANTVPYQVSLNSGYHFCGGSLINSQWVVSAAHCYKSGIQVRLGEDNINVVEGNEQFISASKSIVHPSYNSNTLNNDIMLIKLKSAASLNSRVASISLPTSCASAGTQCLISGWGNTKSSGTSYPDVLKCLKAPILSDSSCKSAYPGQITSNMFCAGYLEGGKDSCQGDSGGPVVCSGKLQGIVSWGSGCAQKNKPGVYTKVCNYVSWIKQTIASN
Protocol: Determination of Anti-trypsin Activity
Anti-trypsin activity was determined according to methods described by Taniuchi et al. [Thromb. Haemost., 79, 543 (1998)], which were partially modified. S-2222, a coloring substrate (5 μl, final concentration: 0.4 mM, Daiichi Pure Chemicals Co., Ltd.) and the test compound (5 μl) were mixed with Tris hydrochloride buffered solution (50 mM, 85 μl, pH: 8.4) containing NaCl (0.9%). To this solution, bovine trypsin (5 μl, final concentration: 0.25 μg-protein/ml, Sigma) was added and the reaction was started. In the control group, distilled water was added to the Tris-buffered solution instead of the test compound. The reaction mixture (in total: 0.1 ml) was incubated at room temperature. Optical absorbance was continuously determined at 405 nm with a 96-well microplate reader (Model 550, Biorad) and increase in the absorbance for 5 minutes was calculated as an indicator of trypsin activity. To assess anti-trypsin activities of the test compounds, concentrations of the test compounds to inhibit the trypsin activity by 50% (IC50) were calculated.

Row | Structure (SMILES) | IC50 [1] [nM] | IC50 [2] [nM]
1 | N=C(N)c1cccc(/C=C/CN(c2ccc(OC3CCN(C4=NCCC4)CC3)cc2)S(=O)(=O)CC(=O)O)c1 [Example 60, N-[3-(3-Amidinophenyl)-2-(E)-propenyl]-N-[4-[1-(4,5-dihydro-3H-pyrrol-2-yl)piperidin-4-yloxy]phenyl]sulfamoylacetic acid dihydrochloride] | 14 | 3100
2 | CCOC(=O)CS(=O)(=O)N(C/C=C/c1cccc(C(=N)N)c1)c1ccc(OC2CCN(C3=NCCC3)CC2)c(C)c1 [Example 65, Ethyl N-[3-(3-amidinophenyl)-2-(E)-propenyl]-N-[4-[1-(4,5-dihydro-3H-pyrrol-2-yl)piperidin-4-yloxy]-3-methylphenyl]sulfamoylacetate dihydrochloride] | 12 | 2300
3 | Cc1cc(N(C/C=C/c2cccc(C(=N)N)c2)S(=O)(=O)CC(=O)O)ccc1OC1CCN(C2=NCCCC2)CC1 [Example 68, N-[3-(3-Amidinophenyl)-2-(E)-propenyl]-N-[3-methyl-4-(2,3,4,5-tetrahydropyridin-6-yl)piperidin-4-yloxy]phenyl]sulfamoylacetic acid dihydrochloride] | 15 | 
4 | CCOC(=O)CS(=O)(=O)N(C/C=C/c1cccc(C(=N)N)c1)c1ccc(OC2CCN(C3=NCCC3)CC2)c(C(F)(F)F)c1 [Example 77, Ethyl N-[3-(3-amidinophenyl)-2-(E)-propenyl]-N-[4-[1-(4,5-dihydro-3H-pyrrol-2-yl)piperidin-4-yloxy]-3-trifluoromethylphenyl]sulfamoylacetate dihydrochloride] | 12 | 3700
5 | N=C(N)c1cccc(/C=C/CN(c2ccc(OC3CCN(C4=NCCC4)CC3)c(C(F)(F)F)c2)S(=O)(=O)CC(=O)O)c1 [Example 78, N-[3-(3-Amidinophenyl)-2-(E)-propenyl]-N-[4-[1-(4,5-dihydro-3H-pyrrol-2-yl)piperidin-4-yloxy]-3-trifluoromethylphenyl]sulfamoylacetic acid dihydrochloride] | 11 | 5300
6 | CCOC(=O)CS(=O)(=O)N(C/C=C/c1cccc(C(=N)N)c1)c1ccc(OC2CCN(C3=NCCCC3)CC2)c(C(F)(F)F)c1 [Example 79, Ethyl N-[3-(3-amidinophenyl)-2-(E)-propenyl]-N-[4-[1-(2,3,4,5-tetrahydropyridin-6-yl)piperidin-4-yloxy]-3-trifluoromethylphenyl]sulfamoylacetate dihydrochloride] | 15 | 
7 | N=C(N)c1cccc(/C=C/CN(c2ccc(OC3CCN(C4=NCCCC4)CC3)c(C(F)(F)F)c2)S(=O)(=O)CC(=O)O)c1 [Example 80, N-[3-(3-Amidinophenyl)-2-(E)-propenyl]-N-[4-[1-(2,3,4,5-tetrahydropyridin-6-yl)piperidin-4-yloxy]-3-trifluoromethylphenyl]sulfamoylacetic acid dihydrochloride] | 11 | 
8 | CCOC(=O)CS(=O)(=O)N(C/C=C/c1cccc(C(=N)N)c1)c1ccc(OC2CCN(C3=NCCSC3)CC2)c(Cl)c1 [Example 83, Ethyl N-[3-(3-amidinophenyl)-2-(E)-propenyl]-N-[3-chloro-4-[1-(5,6-dihydro-2H-[1,4]thiazin-3-yl)piperidin-4-yloxy]phenyl]sulfamoylacetate dihydrochloride] | 13 | 
9 | CCN=CN1CCC(Oc2ccc(N(CC=Cc3cccc(C(=N)N)c3)S(=O)(=O)CC(=O)OCC)cc2Cl)CC1 [Example 86, Ethyl N-[3-(3-amidinophenyl)-2-(E)-propenyl]-N-[3-chloro-4-[1-(N-ethylformimidoyl)piperidin-4-yloxy]phenyl]sulfamoylacetate dihydrochloride] | 15 | 
10 | CC/N=C/N1CCC(Oc2ccc(N(C/C=C/c3cccc(C(=N)N)c3)S(=O)(=O)CC(=O)O)cc2Cl)CC1 [Example 87, N-[3-(3-Amidinophenyl)-2-(E)-propenyl]-N-[3-chloro-4-[1-(N-ethylformimidoyl)piperidin-4-yloxy]phenyl]sulfamoylacetic acid dihydrochloride] | 13 | 3500

Continued by falling IC50 [1], values first:

Row | IC50 [1] [nM] | IC50 [2] [nM] | Structure (SMILES)
11 | 11 | 7300 | N=C(N)c1cccc(/C=C/CN(c2ccc(OC3CCN4CCCC4C3)c(Cl)c2)S(=O)(=O)CC(=O)O)c1 (stereo not shown) [Example 42, dihydrochloride]
12 | 9.8 | 4400 | N=C(N)c1cccc(/C=C/CN(c2ccc(OC3CCN(C4=NCCC4)CC3)c(C(N)=O)c2)S(=O)(=O)CC(=O)O)c1 [Example 72, N-[3-(3-Amidinophenyl)-2-(E)-propenyl]-N-[3-carbamoyl-4-[1-(4,5-dihydro-3H-pyrrol-2-yl)piperidin-4-yloxy]phenyl]sulfamoylacetic acid dihydrochloride]
13 | 8.3 | 5600 | Cc1cc(N(C/C=C/c2cccc(C(=N)N)c2)S(=O)(=O)CC(=O)O)ccc1OC1CCN(C2=NCCC2)CC1 [Example 66, N-[3-(3-Amidinophenyl)-2-(E)-propenyl]-N-[4-[1-(4,5-dihydro-3H-pyrrol-2-yl)piperidin-4-yloxy-]-3-methylphenyl]sulfamoylacetic acid dihydrochloride]
14 | 7.9 | 540 | CCOC(=O)CS(=O)(=O)N(C/C=C/c1cccc(C(=N)N)c1)c1ccc(OC2CCN(c3ccncc3)CC2)c(Cl)c1 [Example 27, Ethyl N-[3-(3-amidinophenyl)-2-(E)-propenyl]-N-[3-chloro-4-[1-(4-pyridyl)piperidin-4-yloxy]phenyl]sulfamoylacetate dihydrochloride]
15 | 7 | 2200 | N=C(N)c1cccc(/C=C/CN(c2ccc(OC3CCN(C4=NCCC4)CC3)c(Cl)c2)S(=O)(=O)CC(=O)O)c1 [Example 54, N-[3-(3-Amidinophenyl)-2-(E)-propenyl]-N-[3-chloro-4-[1-(4,5-dihydro-3H-pyrrol-2-yl)piperidin-4-yloxy]phenyl]sulfamoylacetic acid dihydrochloride]
16 | 6.8 | 860 | CCOC(=O)CS(=O)(=O)N(C/C=C/c1cccc(C(=N)N)c1)c1ccc(OC2CCN(C(=N)CC)CC2)c(Cl)c1 [Example 49, Ethyl N-[3-(3-amidinophenyl)-2-(E)-propenyl]-N-[3-chloro-4-[1-(1-iminopropyl)piperidin-4-yloxy]phenyl-1 sulfamoylacetatedihydrochloride]
17 | 6.8 | 2100 | CCOC(=O)CS(=O)(=O)N(C/C=C/c1cccc(C(=N)N)c1)c1ccc(OC2CCN(C3=NCCC3)CC2)c(Cl)c1 [Example 53, Ethyl N-[3-(3-amidinophenyl)-2-(E)-propenyl]-N-[3-chloro-4-[1-(4,5-dihydro-3H-pyrrol-2-yl)piperidin-4-yloxy]phenyl]sulfamoylacetate dihydrochloride]
18 | 6.4 | 650 | N=C(N)c1cccc(/C=C/CN(c2ccc(OC3CCN(c4ccncc4)CC3)c(Cl)c2)S(=O)(=O)CC(=O)O)c1 [Example 28, N-[3-(3-Amidinophenyl)-2-(E)-propenyl]-N-[3-chloro-4-[1-(4-pyridyl)piperidin-4-yloxy]phenyl]sulfamoylacetic acid dihydrochloride]
19 | 6.3 | 1200 | CCC(=N)N1CCC(Oc2ccc(N(C/C=C/c3cccc(C(=N)N)c3)S(=O)(=O)CC(=O)O)cc2Cl)CC1 [Example 50, N-[3-(3-Amidinophenyl)-2-(E)-propenyl]-N-[3-chloro-4-[1-(1-iminopropyl)piperidin-4-yloxy]phenyl]sulfamoylacetic acid dihydrochloride]
20 | 6.1 | 790 | CCOC(=O)CS(=O)(=O)N(C/C=C/c1cccc(C(=N)N)c1)c1ccc(OC2CCN(C=N)CC2)c(Cl)c1 [Example 47, Ethyl N-[3-(3-amidinophenyl)-2-(E)-propenyl]-N-[3-chloro-4-[(1-formimidoylpiperidin-4-yloxy)phenyl]sulfamoylacetatedihydrochloride]
21 | 5.8 | 1200 | N=CN1CCC(Oc2ccc(N(C/C=C/c3cccc(C(=N)N)c3)S(=O)(=O)CC(=O)O)cc2Cl)CC1 [Example 48, N-13-(3-Amidinophenyl)-2-(E)-propenyl]-N-[3-chloro-4-(1-formimidoylpiperidin-4-yloxy]phenyl]sulfamoylacetic acid dihydrochloride]
